From patent US9249125B2, “Pyrazole derivatives as p38 MAP inhibitors” (RESPIVERT LIMITED, priority 2012, dated 2016)
pEC50, pIC50: −log10 of the molar value.

How the values were obtained:
[1] = tested on: d-U937 cells; assay: Cell viability: MTT assay; assay type: cell-based, human; settings: 1 μg/mL
Method in brief: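 MTT read-out (1 h, absorbance 550 nm) on d-U937 cells after pre-incubation with 1 or 10 μg/mL compound under two regimes: 4 h, 5% FCS, or 24 h, 10% FCS RPMI1640. Values are percent loss of viability relative to vehicle (0.5% DMSO), so increases are reported as negative.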

[2] = target: p38 MAPKα (Homo sapiens (Human), UniProt Q16539); assay: p38 MAPKα enzyme inhibition (FRET, Z-LYTE); assay type: biochemical
[3] = target: Syk (Homo sapiens (Human), UniProt P43405); assay: Syk enzyme inhibition (FRET, Z-LYTE); assay type: biochemical
Method in brief: (§1)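 Z-LYTE FRET kinase assay: enzyme (3000 or 2000 ng/mL stock, respectively) preincubated 2 h at RT with compound (4–0.004 μg/mL stocks), then FRET peptide plus ATP (800 μM stock for c-Src, 60 μM for Syk) added for 1 h. Protease development 1 h; phosphorylation from coumarin/fluorescein emission ratio.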

[4] = target: cSrc (Homo sapiens (Human), UniProt P12931); assay: c-Src enzyme inhibition (FRET, Z-LYTE); assay type: biochemical
Method in brief: as §1

[5] = tested on: LPS-induced TNFα release in d-U937 cells; assay: LPS-induced TNFα release in d-U937 cells; assay type: cell-based; settings: Homo sapiens, dU937, relative to 10 μg/mL BIRB796, read-out: LPS Induced Release of Cytokine in d-937 Cells TNFα REC50
Method in brief: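 Read-out: TNFα and IL-8 released into supernatant, sandwich ELISA, expressed as inhibition versus vehicle at each dose and fitted to give REC50. Cells were PMA-differentiated U937 (100 ng/mL, 48–72 hr), compound-exposed 2 hr before a 4 hr LPS stimulus (0.1 μg/mL).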

[6] = tested on: Poly I:C-induced ICAM-1 expression in BEAS2B cells; assay: Poly I:C-induced ICAM-1 expression in BEAS2B cells; assay type: cell-based; settings: Homo sapiens, BEAS-2B, read-out: Poly IC induced ICAM1 in BEAS2B IC50
Method in brief: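 Cell-based ELISA read at 450 nm minus 655 nm, divided by crystal violet OD595 to normalize for cell number, gave ICAM-1 levels. Readout was taken 18 hr after poly I:C (1 μg/mL, Oligofectamine) transfection of human bronchial BEAS2B cells pretreated 2 hr with test compound.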

Chain of p38 MAPKα (Q16539 whole entry): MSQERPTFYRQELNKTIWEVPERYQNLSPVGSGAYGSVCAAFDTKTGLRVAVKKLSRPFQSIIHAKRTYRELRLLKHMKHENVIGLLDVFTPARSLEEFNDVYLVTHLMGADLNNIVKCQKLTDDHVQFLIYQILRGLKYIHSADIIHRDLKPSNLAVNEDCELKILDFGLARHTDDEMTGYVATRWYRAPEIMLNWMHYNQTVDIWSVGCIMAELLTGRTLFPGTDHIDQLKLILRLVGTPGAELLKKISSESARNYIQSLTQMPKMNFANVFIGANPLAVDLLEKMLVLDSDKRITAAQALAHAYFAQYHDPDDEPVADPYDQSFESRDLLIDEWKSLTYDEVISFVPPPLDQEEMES
Chain of cSrc (P12931 whole entry, looked up): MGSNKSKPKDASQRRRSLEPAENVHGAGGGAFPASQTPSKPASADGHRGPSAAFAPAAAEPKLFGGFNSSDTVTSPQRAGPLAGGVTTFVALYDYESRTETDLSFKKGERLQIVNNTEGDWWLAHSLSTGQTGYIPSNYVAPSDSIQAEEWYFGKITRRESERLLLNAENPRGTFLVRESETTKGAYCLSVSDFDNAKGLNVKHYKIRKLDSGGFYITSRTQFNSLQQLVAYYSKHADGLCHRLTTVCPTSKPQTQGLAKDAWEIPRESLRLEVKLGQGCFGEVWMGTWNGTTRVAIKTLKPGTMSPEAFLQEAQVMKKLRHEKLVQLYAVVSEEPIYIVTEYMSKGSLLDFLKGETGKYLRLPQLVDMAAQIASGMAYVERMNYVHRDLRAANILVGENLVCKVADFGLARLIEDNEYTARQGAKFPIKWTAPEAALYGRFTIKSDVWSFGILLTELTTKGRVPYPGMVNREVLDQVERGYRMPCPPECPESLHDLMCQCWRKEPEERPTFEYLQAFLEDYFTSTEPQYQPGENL

For `Cc1cc(Nc2nccc(Oc3ccc(NC(=O)Nc4cc(C(C)(C)C)nn4-c4ccc(=O)n(CCN5CCOCC5)c4)c4ccccc34)n2)cc2cn[nH]c12` [Example 89, 1-(3-(tert-butyl)-1-(1-(2-morpholinoethyl)-6-oxo-1,6-dihydropyridin-3-yl)-1H-pyrazol-5-yl)-3-(4-((2-((7-methyl-1H-indazol-5-yl)amino)pyrimidin-4-yl)oxy)naphthalen-1-yl)urea], the “MTT Assay Cell viability at time point in d-U937 cells 4 h” value [1] was “−ve (−ve and +ve indicate that the value is below and above respectively, the no significant effect threshold, defined as 30% inhibition at 1 μg/mL at the time point indicated.)”, the “MTT Assay Cell viability at time point in d-U937 cells 24 h” value [1] was “+ve (−ve and +ve indicate that the value is below and above respectively, the no significant effect threshold, defined as 30% inhibition at 1 μg/mL at the time point indicated.)” and the pIC50 [2] was 7.33. The pIC50 [3] was 8.52, the pIC50 [4] was greater than 9.00 and the pEC50 [5] was 7.97. For the same molecule, the pIC50 [6] was 7.77.
`Cc1ccc(-n2nc(C(C)(C)C)cc2NC(=O)Nc2ccc(Oc3ccnc(Nc4cccc5cc[nH]c45)n3)c3ccccc23)cc1` [Example 17] was tested, and the “MTT Assay Cell viability at time point in d-U937 cells 4 h” value [1] was “−ve (−ve and +ve indicate that the value is below and above respectively, the no significant effect threshold, defined as 30% inhibition at 1 μg/mL at the time point indicated.)”, the “MTT Assay Cell viability at time point in d-U937 cells 24 h” value [1] was “−ve (−ve and +ve indicate that the value is below and above respectively, the no significant effect threshold, defined as 30% inhibition at 1 μg/mL at the time point indicated.)” and the pIC50 [2] was 6.42. It also gave a pIC50 [3] of 6.55, a pIC50 [4] of 6.86 and a pEC50 [5] of 8.06. The pIC50 [6] was 8.08.
For `Cc1ccc(-n2nc(C(C)(C)C)cc2NC(=O)Nc2ccc(Oc3ccnc(Nc4ccc5[nH]ncc5c4)n3)c3ccccc23)cc1` [Example 22, 1-(4-((2-((1H-indazol-5-yl)amino)pyrimidin-4-yl)oxy)naphthalen-1-yl)-3-(3-(tert-butyl)-1-(p-tolyl)-1H-pyrazol-5-yl)urea], the “MTT Assay Cell viability at time point in d-U937 cells 4 h” value [1] was “−ve (−ve and +ve indicate that the value is below and above respectively, the no significant effect threshold, defined as 30% inhibition at 1 μg/mL at the time point indicated.)”, the “MTT Assay Cell viability at time point in d-U937 cells 24 h” value [1] was “−ve (−ve and +ve indicate that the value is below and above respectively, the no significant effect threshold, defined as 30% inhibition at 1 μg/mL at the time point indicated.)” and the pIC50 [2] was 7.25. The pIC50 [3] was 7.59, the pIC50 [4] was 7.72 and the pEC50 [5] was 8.33. For the same molecule, the pIC50 [6] was 8.60.
In the case of `Cc1ccc(-n2nc(C(C)(C)C)cc2NC(=O)Nc2ccc(Oc3ccnc(Nc4ccc5cn[nH]c5c4)n3)c3ccccc23)cc1` [Example 24, 1-(4-((2-((1H-indazol-6-yl)amino)pyrimidin-4-yl)oxy)naphthalen-1-yl)-3-(3-(tert-butyl)-1-(p-tolyl)-1H-pyrazol-5-yl)urea], the “MTT Assay Cell viability at time point in d-U937 cells 4 h” value [1] was “−ve (−ve and +ve indicate that the value is below and above respectively, the no significant effect threshold, defined as 30% inhibition at 1 μg/mL at the time point indicated.)”, the “MTT Assay Cell viability at time point in d-U937 cells 24 h” value [1] was “−ve (−ve and +ve indicate that the value is below and above respectively, the no significant effect threshold, defined as 30% inhibition at 1 μg/mL at the time point indicated.)” and the pIC50 [2] was 6.61. The pIC50 [3] was 5.96, the pIC50 [4] was 6.99 and the pEC50 [5] was 8.33. The pIC50 [6] was 8.62.
For `Cc1ccc(-n2nc(C(C)(C)C)cc2NC(=O)Nc2ccc(Oc3ccnc(Nc4ccc5c(ccn5C)c4)n3)c3ccccc23)cc1` [Example 18, 1-(3-(tert-butyl)-1-(p-tolyl)-1H-pyrazol-5-yl)-3-(4-((2-((1-methyl-1H-indol-5-yl)amino)pyrimidin-4-yl)oxy)naphthalen-1-yl)urea], the “MTT Assay Cell viability at time point in d-U937 cells 4 h” value [1] was “−ve (−ve and +ve indicate that the value is below and above respectively, the no significant effect threshold, defined as 30% inhibition at 1 μg/mL at the time point indicated.)”, the “MTT Assay Cell viability at time point in d-U937 cells 24 h” value [1] was “−ve (−ve and +ve indicate that the value is below and above respectively, the no significant effect threshold, defined as 30% inhibition at 1 μg/mL at the time point indicated.)” and the pIC50 [2] was 5.87. For the same molecule, the pIC50 [3] was 7.04, the pIC50 [4] was 6.81 and the pEC50 [5] was 8.55. It also gave a pIC50 [6] of 8.72.
In the case of `Cc1ccc(-n2nc(C(C)(C)C)cc2NC(=O)Nc2ccc(Oc3ccnc(Nc4ccc5scnc5c4)n3)c3ccccc23)cc1` [Example 34, 1-(4-((2-(benzo[d]thiazol-5-ylamino)pyrimidin-4-yl)oxy)naphthalen-1-yl)-3-(3-(tert-butyl)-1-(p-tolyl)-1H-pyrazol-5-yl)urea], the “MTT Assay Cell viability at time point in d-U937 cells 4 h” value [1] was “−ve (−ve and +ve indicate that the value is below and above respectively, the no significant effect threshold, defined as 30% inhibition at 1 μg/mL at the time point indicated.)”, the “MTT Assay Cell viability at time point in d-U937 cells 24 h” value [1] was “−ve (−ve and +ve indicate that the value is below and above respectively, the no significant effect threshold, defined as 30% inhibition at 1 μg/mL at the time point indicated.)” and the pIC50 [2] was 6.51. The pIC50 [3] was less than 5.81, the pIC50 [4] was 7.74 and the pEC50 [5] was 9.05. It also gave a pIC50 [6] of 8.20.
With `Cc1ccc(-n2nc(C(C)(C)C)cc2NC(=O)Nc2ccc(Oc3ccnc(Nc4ccc5ncn(C)c5c4)n3)c3ccccc23)cc1` [Example 31, 1-(3-(tert-butyl)-1-(p-tolyl)-1H-pyrazol-5-yl)-3-(4-((2-((1-methyl-1H-benzo[d]imidazol-6-yl)amino)pyrimidin-4-yl)oxy)naphthalen-1-yl)urea] the “MTT Assay Cell viability at time point in d-U937 cells 4 h” value [1] was “−ve (−ve and +ve indicate that the value is below and above respectively, the no significant effect threshold, defined as 30% inhibition at 1 μg/mL at the time point indicated.)”, the “MTT Assay Cell viability at time point in d-U937 cells 24 h” value [1] was “−ve (−ve and +ve indicate that the value is below and above respectively, the no significant effect threshold, defined as 30% inhibition at 1 μg/mL at the time point indicated.)” and the pIC50 [2] was 7.48. The pIC50 [3] was 6.70, the pIC50 [4] was 8.22 and the pEC50 [5] was 9.52. It also gave a pIC50 [6] of 8.64.
`Cc1ccc(-n2nc(C(C)(C)C)cc2NC(=O)Nc2ccc(Oc3ccnc(Nc4ccc5ncsc5c4)n3)c3ccccc23)cc1` [Example 35, 1-(4-((2-(benzo[d]thiazol-6-ylamino)pyrimidin-4-yl)oxy)naphthalen-1-yl)-3-(3-(tert-butyl)-1-(p-tolyl)-1H-pyrazol-5-yl)urea] was tested, and the “MTT Assay Cell viability at time point in d-U937 cells 4 h” value [1] was “−ve (−ve and +ve indicate that the value is below and above respectively, the no significant effect threshold, defined as 30% inhibition at 1 μg/mL at the time point indicated.)”, the “MTT Assay Cell viability at time point in d-U937 cells 24 h” value [1] was “−ve (−ve and +ve indicate that the value is below and above respectively, the no significant effect threshold, defined as 30% inhibition at 1 μg/mL at the time point indicated.)” and the pIC50 [2] was 6.36. For the same molecule, the pIC50 [3] was less than 5.81, the pIC50 [4] was 7.74 and the pEC50 [5] was 7.96. For the same molecule, the pIC50 [6] was 8.57.
With `CC(C)(C)c1cc(NC(=O)Nc2ccc(Oc3ccnc(Nc4ccc5[nH]ncc5c4)n3)c3ccccc23)n(-c2ccc(OCCN3CCOCC3)cc2)n1` [Example 12, 1-(4-((2-((1H-Indazol-5-yl)amino)pyrimidin-4-yl)oxy)naphthalen-1-yl)-3-(3-(tert-butyl)-1-(4-(2-morpholinoethoxy)phenyl)-1H-pyrazol-5-yl)urea] the “MTT Assay Cell viability at time point in d-U937 cells 4 h” value [1] was “−ve (−ve and +ve indicate that the value is below and above respectively, the no significant effect threshold, defined as 30% inhibition at 1 μg/mL at the time point indicated.)”, the “MTT Assay Cell viability at time point in d-U937 cells 24 h” value [1] was “−ve (−ve and +ve indicate that the value is below and above respectively, the no significant effect threshold, defined as 30% inhibition at 1 μg/mL at the time point indicated.)” and the pIC50 [2] was 7.11. The pIC50 [3] was 7.66, the pIC50 [4] was 7.89 and the pEC50 [5] was 8.80. It also gave a pIC50 [6] of 7.67.
With `Cc1ccc(-n2nc(C(C)(C)C)cc2NC(=O)Nc2ccc(Oc3ccnc(Nc4ccc5[nH]cnc5c4)n3)c3ccccc23)cc1` [Example 30, 1-(4-((2-((1H-benzo[d]imidazol-5-yl)amino)pyrimidin-4-yl)oxy)naphthalen-1-yl)-3-(3-(tert-butyl)-1-(p-tolyl)-1H-pyrazol-5-yl)urea] the “MTT Assay Cell viability at time point in d-U937 cells 4 h” value [1] was “−ve (−ve and +ve indicate that the value is below and above respectively, the no significant effect threshold, defined as 30% inhibition at 1 μg/mL at the time point indicated.)”, the “MTT Assay Cell viability at time point in d-U937 cells 24 h” value [1] was “−ve (−ve and +ve indicate that the value is below and above respectively, the no significant effect threshold, defined as 30% inhibition at 1 μg/mL at the time point indicated.)” and the pIC50 [2] was 7.05. The pIC50 [3] was less than 5.80, the pIC50 [4] was 7.77 and the pEC50 [5] was 8.74. It also gave a pIC50 [6] of 8.33.
